{"source": "patent US20180177184A1", "about": "“ANTIMICROBIAL, INSECTICIDAL AND ACARICIDAL SYSTEM” (UNIVERSIDAD POLITECNICA DE VALENCIA, priority 2015, published 2018)", "tested_on": "Listeria innocua", "assay": "Bacterial viability of Listeria innocua, 2 h incubation in tryptone soy broth, CFU counting", "assay_type": "cell-based", "conditions": "L. innocua, about 10^6 CFU/ml, 37° C., concentration of vanillin", "protocol": "To that end, in vitro assays were carried out to determine the bacterial viability of Listeria innocua compared to mesoporous particles functionalized with vanillin as well as free vanillin. […] To that end, different suspensions of particles or free vanillin in culture broth (tryptone soy broth) were prepared, and the microbial inoculum was added thereto to obtain an initial population of about 10^6 CFU/ml. Said suspensions were incubated under orbital stirring (150 rpm) at 37° C. for 2 h. After said period, the serial dilutions were seeded in selective medium and incubated for 48 h, with subsequent counting of the colony forming units (CFUs) and calculation of the percentage of inhibition."}
{"compound": "COc1cc(C=O)ccc1O", "note": "[free vanillin, vanillin]", "values": [{"measurement": "concentration producing complete inhibition of the microorganism", "value": 4, "unit": "mg/mL"}]}
